Data published in PubChem BioAssay AID248 (DTP/NCI, 2004).
Values joined by “and” are separate entries in the source; they are usually repeats but may differ in a detail not shown here. Equal entries are not always repeated. Inconclusive results and toxic doses are left out. Rule as the data show it: active = T/C of 150% or more; inactive = T/C below 125%.

Tested on: L1210 leukemia ip in BDF1 mice, survival T/C
Test: NCI In Vivo Anticancer Drug Screen. Data for tumor model L1210 Leukemia (intraperitoneal) in B6D2F1 (BDF1) mice
Settings: endpoint: mean survival time, higher = longer survival
In short: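 Tumor cells were implanted, animals were treated, and survival was followed. The result divides the treated measurement by the vehicle-control measurement.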

[1] = dose: 100.0 mg/kg/injection, schedule: Q04DX003 (ip), vehicle: other
[2] = dose: 200.0 mg/kg/injection, schedule: Q04DX003 (ip), vehicle: other
[3] = dose: 400.0 mg/kg/injection, schedule: Q04DX003 (ip), vehicle: other
[4] = dose: 100.0 mg/kg/injection, schedule: Q01DX009 (ip), vehicle: Klucel (hydroxypropylcellulose) (HPC)
[5] = dose: 200.0 mg/kg/injection, schedule: Q01DX009 (ip), vehicle: Klucel (hydroxypropylcellulose) (HPC)
[6] = dose: 400.0 mg/kg/injection, schedule: Q01DX009 (ip), vehicle: Klucel (hydroxypropylcellulose) (HPC)
[7] = dose: 50.0 mg/kg/injection, schedule: Q01DX001 (ip), vehicle: Klucel (hydroxypropylcellulose) (HPC)
[8] = dose: 100.0 mg/kg/injection, schedule: Q01DX001 (ip), vehicle: Klucel (hydroxypropylcellulose) (HPC)
[9] = dose: 200.0 mg/kg/injection, schedule: Q01DX001 (ip), vehicle: Klucel (hydroxypropylcellulose) (HPC)
[10] = dose: 100.0 mg/kg/injection, schedule: Q01DX009 (ip), vehicle: saline with Tween-80
[11] = dose: 200.0 mg/kg/injection, schedule: Q01DX009 (ip), vehicle: saline with Tween-80
[12] = dose: 400.0 mg/kg/injection, schedule: Q01DX009 (ip), vehicle: saline with Tween-80
[13] = dose: 100.0 mg/kg/injection, schedule: Q04DX003 (ip), vehicle: saline with Tween-80
[14] = dose: 100.0 mg/kg/injection, schedule: Q01DX001 (ip), vehicle: saline
[15] = dose: 100.0 mg/kg/injection, schedule: Q01DX001 (ip), vehicle: carboxymethylcellulose (CMC)
[16] = dose: 200.0 mg/kg/injection, schedule: Q01DX001 (ip), vehicle: carboxymethylcellulose (CMC)
[17] = dose: 400.0 mg/kg/injection, schedule: Q01DX001 (ip), vehicle: carboxymethylcellulose (CMC)

Measured: T/C

CC(=O)c1cnn(-c2ccccc2)c1C
inactive: dose: 100.0 mg/kg/injection, schedule: Q01DX009 (ip), vehicle: other 96 % of control | [1] 89 % of control | dose: 200.0 mg/kg/injection, schedule: Q01DX009 (ip), vehicle: other 101 % of control | [2] 100 % of control | dose: 400.0 mg/kg/injection, schedule: Q01DX009 (ip), vehicle: other 102 % of control | [3] 92 % of control

CC(=O)Oc1cccc(N(C)C)c1
inactive: dose: 25.0 mg/kg/injection, schedule: Q04DX003 (ip), vehicle: saline 97 % of control | dose: 50.0 mg/kg/injection, schedule: Q04DX003 (ip), vehicle: saline 100 % of control | dose: 100.0 mg/kg/injection, schedule: Q01DX001 (ip), vehicle: acetone 98 % of control | dose: 100.0 mg/kg/injection, schedule: Q04DX003 (ip), vehicle: saline 91 % of control

CCN(CCOC(=O)Nc1ccc(F)cc1)c1ccccc1
inactive: [4] 98 % of control | [5] 98 % of control | [6] 110 % of control

Cc1ccc(-n2c(O)c(N=Nc3ccc(Br)cc3)c(=O)n(-c3ccc(Br)cc3)c2=S)cc1
inactive: [7] 100 % of control | [8] 109 % of control | [9] 106 % of control

O=C(Cc1ccccc1)Nc1cccc(C(F)(F)F)c1
inactive: [4] 91 % of control | [5] 95 % of control | [6] 98 % of control

O=C(O)c1ccccc1C(=O)c1cccc2c(Cl)cccc12
inactive: [7] 97 % of control | [8] 92 % of control | [9] 91 % of control

Cc1cc(N)c(C)c(CC#N)c1
inactive: dose: 50.0 mg/kg/injection, schedule: Q01DX009 (ip), vehicle: saline 97 % of control | dose: 100.0 mg/kg/injection, schedule: Q01DX009 (ip), vehicle: saline 118 % of control | dose: 200.0 mg/kg/injection, schedule: Q01DX009 (ip), vehicle: saline 90 % of control

CCCCCCCC/C=C\CCCCCCCC(=O)OCC#CCOC(=O)CCCCCCC/C=C/CCCCCCCC
inactive: dose: 100.0 mg/kg/injection, schedule: Q01DX001 (ip), vehicle: saline with Tween-80 94 % of control | [10] 95 % of control and 101 % of control | dose: 100.0 mg/kg/injection, schedule: Q04DX002 (ip), vehicle: saline with Tween-80 97 % of control and 102 % of control | dose: 200.0 mg/kg/injection, schedule: Q01DX001 (ip), vehicle: saline with Tween-80 91 % of control | [11] 93 % of control and 94 % of control | dose: 200.0 mg/kg/injection, schedule: Q04DX002 (ip), vehicle: saline with Tween-80 97 % of control and 104 % of control | dose: 400.0 mg/kg/injection, schedule: Q01DX001 (ip), vehicle: saline with Tween-80 94 % of control | [12] 95 % of control and 97 % of control | dose: 400.0 mg/kg/injection, schedule: Q04DX002 (ip), vehicle: saline with Tween-80 96 % of control and 108 % of control

Cc1cc([N+](=O)[O-])cc(S(=O)(=O)O)c1C
inactive: dose: 50.0 mg/kg/injection, schedule: Q01DX009 (ip), vehicle: saline with Tween-80 102 % of control | [10] 98 % of control and 92 % of control | [11] 98 % of control and 106 % of control | [12] 98 % of control

CCN=C=NCCCN(C)C
inactive: dose: 20.0 mg/kg/injection, schedule: Q01DX009 (ip), vehicle: saline 107 % of control | dose: 20.0 mg/kg/injection, schedule: Q04DX003 (ip), vehicle: saline 100 % of control | dose: 40.0 mg/kg/injection, schedule: Q01DX009 (ip), vehicle: saline 114 % of control | dose: 40.0 mg/kg/injection, schedule: Q04DX003 (ip), vehicle: saline 109 % of control | dose: 80.0 mg/kg/injection, schedule: Q04DX003 (ip), vehicle: saline 112 % of control

COc1ccc(O)cc1C
inactive: [1] 104 % of control | [2] 107 % of control | [3] 117 % of control

O=C(O)c1ccc(Nc2ncnc3nc[nH]c23)cc1
inactive: [13] 104 % of control | dose: 200.0 mg/kg/injection, schedule: Q04DX003 (ip), vehicle: saline with Tween-80 96 % of control | dose: 400.0 mg/kg/injection, schedule: Q04DX003 (ip), vehicle: saline with Tween-80 102 % of control

COc1ccc(C)cc1NC(=O)Nc1cc([N+](=O)[O-])ccc1C
inactive: [4] 93 % of control | [5] 98 % of control | [6] 102 % of control

CC1C2CC3OC(=O)C1(C)C3C2 (stereo not drawn)
inactive: [14] 92 % of control | dose: 200.0 mg/kg/injection, schedule: Q01DX001 (ip), vehicle: saline 98 % of control | dose: 400.0 mg/kg/injection, schedule: Q01DX001 (ip), vehicle: saline 96 % of control

COC1OC(C2N(c3ccccc3)CCN2c2ccccc2)=CC(OC(C)=O)C1OC(C)=O (stereo not drawn)
inactive: [4] 86 % of control | [6] 90 % of control

CNc1ncnc2[nH]ncc12
inactive: dose: 50.0 mg/kg/injection, schedule: Q01DX001 (ip), vehicle: carboxymethylcellulose (CMC) 94 % of control | [15] 88 % of control | [16] 96 % of control | [17] 103 % of control

O=C1c2cc(F)ccc2-c2cc(Br)c([N+](=O)[O-])cc21
inactive: [15] 97 % of control | [16] 103 % of control | [17] 95 % of control

CCOP(=O)(OCC)Oc1ccc(Sc2ccc(OP(=O)(OCC)OCC)cc2)cc1
inactive: [14] 108 % of control

CC(=O)Nc1ccc(OC(=O)Nc2cccc3ccccc23)cc1
inactive: dose: 100.0 mg/kg/injection, schedule: Q04DX003 (ip), vehicle: Klucel (hydroxypropylcellulose) (HPC) 89 % of control | dose: 200.0 mg/kg/injection, schedule: Q04DX003 (ip), vehicle: Klucel (hydroxypropylcellulose) (HPC) 96 % of control

O=C(Nc1ccccc1NC(=O)C(Cl)(Cl)Cl)C(Cl)(Cl)Cl
inactive: dose: 87.5 mg/kg/injection, schedule: Q01DX009 (ip), vehicle: carboxymethylcellulose (CMC) 88 % of control | dose: 175.0 mg/kg/injection, schedule: Q01DX009 (ip), vehicle: carboxymethylcellulose (CMC) 93 % of control | dose: 350.0 mg/kg/injection, schedule: Q01DX009 (ip), vehicle: carboxymethylcellulose (CMC) 96 % of control

NC(CO)C(O)c1ccc(N=Nc2ccc(O)cc2)cc1 (stereo not drawn)
inactive: [13] 90 % of control

CC/C(=C/C(F)(F)C(F)(F)C(F)(F)F)[N+](=O)[O-]
inactive: [15] 112 % of control | [16] 103 % of control
